Assay results as given in patent publication US6525001B1, “Substituted pyrimidine and pyridine herbicides” (Mid-American Commercialization Corporation, priority 1997, dated 2003).

Key:
Format in all cases: in vivo
Parameters in all cases: key: 0 is no effect; 10 is complete control
[1] = tested on: rice (Oryza sativa); assay: Test B flood test; conditions: for Plant response rating, Rice: Postemergence (flood test species)
Outline: (§1)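 Flood test on plants grown to the 2-leaf stage; treated plants kept in greenhouse twelve to sixteen days, then visually rated against controls on a 0 (no effect) to 10 (complete control) scale.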

[2] = tested on: smallflower flatsedge (Cyperus difformis); assay: Test B flood test; conditions: for Plant response rating, S. Flatsedge: Postemergence (flood test species)
Outline: as §1

[3] = tested on: duck salad (Heteranthera limosa); assay: Test B flood test; conditions: for Plant response rating, Ducksalad: Postemergence (flood test species)
Outline: as §1

[4] = tested on: bamyardgrass (Echinochloa crus-galli); assay: Test B flood test; conditions: for Plant response rating, Barnyardgrass: Postemergence (flood test species)
Outline: as §1

[5] = tested on: wheat (Triticum aestivum); assay: Test B pre-/postemergence
Outline: (§2)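 Scored visually 0 (none) to 10 (complete control) against untreated plants after twelve to sixteen greenhouse days. Test chemicals, formulated in surfactant-containing non-phytotoxic solvent, applied to soil after planting and, separately, onto 1- to 4-leaf (2–18 cm) plants.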

[6] = tested on: purple nutsedge (Cyperus rotundus); assay: Test B pre-/postemergence
Outline: as §2

[7] = tested on: wild oat (Avena fatua); assay: Test B pre-/postemergence
Outline: as §2

[8] = tested on: rape (Brassica napus); assay: Test B pre-/postemergence
Outline: as §2

[9] = tested on: corn (Zea mays); assay: Test B pre-/postemergence
Outline: as §2

[10] = tested on: soybean (Glycine max); assay: Test B pre-/postemergence
Outline: as §2

[11] = tested on: giant foxtail (Setaria faberii); assay: Test B pre-/postemergence
Outline: as §2

[12] = tested on: bedstraw (Galium aparine); assay: Test B pre-/postemergence
Outline: as §2

[13] = tested on: crabgrass (Digitaria sanguinalis); assay: Test B pre-/postemergence
Outline: as §2

[14] = tested on: sugar beet (Beta vulgaris); assay: Test B pre-/postemergence
Outline: as §2

[15] = tested on: velvetleaf (Abutilon theophrasti); assay: Test B pre-/postemergence
Outline: as §2

[16] = Rate 62 g/ha, Postemergence (flood test)
[17] = Rate 125 g/ha, Postemergence section (flood test species)
[18] = Preemergence, Rate 62 g/ha, scale of 0 to 10

How did the “Rice plant response rating” value [1, 16] turn out when `Cc1cnc(-n2ccc(C(F)(F)F)n2)nc1C(=O)c1cccc(OC(F)(F)F)c1` [Compound 66] was run?
Its value is 0.

What about the “Rice plant response rating” value [1, 17] of the same compound?
The value was 1.

And the “Plant response rating, Rice” value ([1]; Rate 250 g/ha)?
Its value is 1.

What about the “Plant response rating, Rice” value ([1]; Rate 500 g/ha) of the same compound?
The value was 2.

And the “S. Flatsedge plant response rating” value [2, 16]?
The value was 6.

And the “S. Flatsedge plant response rating” value [2, 17]?
Its value is 8.

What about the “Plant response rating, S. Flatsedge” value ([2]; Rate 250 g/ha) of the same compound?
Its value is 8.

And the “Plant response rating, S. Flatsedge” value ([2]; Rate 500 g/ha)?
Its value is 9.

What about the “Ducksalad plant response rating” value [3, 16] of the same compound?
Its value is 2.

What about the “Ducksalad plant response rating” value [3, 17] of the same compound?
The value was 3.

And the “Plant response rating, Ducksalad” value ([3]; Rate 250 g/ha)?
Its value is 5.

What about the “Plant response rating, Ducksalad” value ([3]; Rate 500 g/ha) of the same compound?
The value was 7.

What about the “Barnyardgrass plant response rating” value [4, 16] of the same compound?
The value was 3.

What about the “Barnyardgrass plant response rating” value [4, 17] of the same compound?
The value was 3.

What about the “Plant response rating, Barnyardgrass” value ([4]; Rate 250 g/ha) of the same compound?
Its value is 4.

What about the “Plant response rating, Barnyardgrass” value ([4]; Rate 500 g/ha) of the same compound?
The value was 4.

What about the “Plant response rating, Wheat” value [5, 18] of the same compound?
The value was 0.

And the “Wheat plant response rating” value ([5]; Rate 62 g/ha, Postemergence)?
Its value is 2.

What about the “Wheat plant response rating” value ([5]; Rate 125 g/ha, Postemergence) of the same compound?
Its value is 2.

And the “Plant response rating, Wheat” value ([5]; Rate 125 g/ha, Preemergence)?
The value was 1.

And the “Plant response rating, Wheat” value ([5]; Rate 250 g/ha, Postemergence)?
The value was 2.

And the “Plant response rating, Wheat” value ([5]; Rate 250 g/ha, Preemergence)?
The value was 2.

And the “Plant response rating, Wheat” value ([5]; Rate 500 g/ha, Postemergence)?
Its value is 3.

And the “Plant response rating, Wheat” value ([5]; Rate 500 g/ha, Preemergence)?
Its value is 3.

And the “Plant response rating, Nutsedge” value [6, 18]?
The value was 0.

What about the “Nutsedge plant response rating” value ([6]; Rate 62 g/ha, Postemergence) of the same compound?
The value was 0.

And the “Nutsedge plant response rating” value ([6]; Rate 125 g/ha, Postemergence)?
Its value is 1.

What about the “Plant response rating, Nutsedge” value ([6]; Rate 250 g/ha, Postemergence) of the same compound?
The value was 1.

And the “Plant response rating, Nutsedge” value ([6]; Rate 500 g/ha, Postemergence)?
Its value is 1.

And the “Plant response rating, Nutsedge” value ([6]; Rate 500 g/ha, Preemergence)?
Its value is 0.

And the “Plant response rating, Wild oats” value [7, 18]?
Its value is 2.

What about the “Wild oats plant response rating” value ([7]; Rate 62 g/ha, Postemergence) of the same compound?
The value was 2.

What about the “Wild oats plant response rating” value ([7]; Rate 125 g/ha, Postemergence) of the same compound?
The value was 2.

What about the “Plant response rating, Wild oats” value ([7]; Rate 125 g/ha, Preemergence) of the same compound?
Its value is 4.

And the “Plant response rating, Wild oats” value ([7]; Rate 250 g/ha, Postemergence)?
The value was 2.

And the “Plant response rating, Wild oats” value ([7]; Rate 250 g/ha, Preemergence)?
The value was 5.

What about the “Plant response rating, Wild oats” value ([7]; Rate 500 g/ha, Postemergence) of the same compound?
The value was 3.

What about the “Plant response rating, Wild oats” value ([7]; Rate 500 g/ha, Preemergence) of the same compound?
The value was 5.

What about the “Plant response rating, Rape” value [8, 18] of the same compound?
The value was 0.

And the “Rape plant response rating” value ([8]; Rate 62 g/ha, Postemergence)?
The value was 3.

And the “Rape plant response rating” value ([8]; Rate 125 g/ha, Postemergence)?
Its value is 3.

And the “Plant response rating, Rape” value ([8]; Rate 125 g/ha, Preemergence)?
The value was 0.

And the “Plant response rating, Rape” value ([8]; Rate 250 g/ha, Postemergence)?
Its value is 7.

And the “Plant response rating, Rape” value ([8]; Rate 250 g/ha, Preemergence)?
The value was 4.

What about the “Plant response rating, Rape” value ([8]; Rate 500 g/ha, Postemergence) of the same compound?
Its value is 7.

And the “Plant response rating, Rape” value ([8]; Rate 500 g/ha, Preemergence)?
Its value is 8.

What about the “Plant response rating, Corn” value [9, 18] of the same compound?
The value was 0.

What about the “Corn plant response rating” value ([9]; Rate 62 g/ha, Postemergence) of the same compound?
The value was 1.

What about the “Corn plant response rating” value ([9]; Rate 125 g/ha, Postemergence) of the same compound?
Its value is 2.

And the “Plant response rating, Corn” value ([9]; Rate 125 g/ha, Preemergence)?
The value was 1.

And the “Plant response rating, Corn” value ([9]; Rate 250 g/ha, Postemergence)?
Its value is 2.

And the “Plant response rating, Corn” value ([9]; Rate 250 g/ha, Preemergence)?
The value was 1.

What about the “Plant response rating, Corn” value ([9]; Rate 500 g/ha, Postemergence) of the same compound?
Its value is 3.

And the “Plant response rating, Corn” value ([9]; Rate 500 g/ha, Preemergence)?
The value was 3.

And the “Plant response rating, Soybean” value [10, 18]?
The value was 0.

And the “Soybean plant response rating” value ([10]; Rate 62 g/ha, Postemergence)?
Its value is 5.

What about the “Soybean plant response rating” value ([10]; Rate 125 g/ha, Postemergence) of the same compound?
The value was 5.

And the “Plant response rating, Soybean” value ([10]; Rate 125 g/ha, Preemergence)?
Its value is 0.

And the “Plant response rating, Soybean” value ([10]; Rate 250 g/ha, Postemergence)?
The value was 6.

What about the “Plant response rating, Soybean” value ([10]; Rate 250 g/ha, Preemergence) of the same compound?
Its value is 0.

And the “Plant response rating, Soybean” value ([10]; Rate 500 g/ha, Postemergence)?
The value was 7.

And the “Plant response rating, Soybean” value ([10]; Rate 500 g/ha, Preemergence)?
The value was 1.

What about the “Plant response rating, Giant foxtail” value [11, 18] of the same compound?
Its value is 0.

What about the “Giant foxtail plant response rating” value ([11]; Rate 62 g/ha, Postemergence) of the same compound?
Its value is 2.

What about the “Giant foxtail plant response rating” value ([11]; Rate 125 g/ha, Postemergence) of the same compound?
Its value is 2.

What about the “Plant response rating, Giant foxtail” value ([11]; Rate 125 g/ha, Preemergence) of the same compound?
Its value is 1.

What about the “Plant response rating, Giant foxtail” value ([11]; Rate 250 g/ha, Postemergence) of the same compound?
The value was 2.

And the “Plant response rating, Giant foxtail” value ([11]; Rate 250 g/ha, Preemergence)?
Its value is 2.

And the “Plant response rating, Giant foxtail” value ([11]; Rate 500 g/ha, Postemergence)?
Its value is 4.

What about the “Plant response rating, Giant foxtail” value ([11]; Rate 500 g/ha, Preemergence) of the same compound?
The value was 4.

And the “Plant response rating, Bedstraw” value [12, 18]?
Its value is 1.

And the “Bedstraw plant response rating” value ([12]; Rate 62 g/ha, Postemergence)?
Its value is 2.

What about the “Bedstraw plant response rating” value ([12]; Rate 125 g/ha, Postemergence) of the same compound?
Its value is 3.

And the “Plant response rating, Bedstraw” value ([12]; Rate 125 g/ha, Preemergence)?
Its value is 2.

And the “Plant response rating, Bedstraw” value ([12]; Rate 250 g/ha, Postemergence)?
The value was 6.

And the “Plant response rating, Bedstraw” value ([12]; Rate 250 g/ha, Preemergence)?
The value was 3.

And the “Plant response rating, Bedstraw” value ([12]; Rate 500 g/ha, Postemergence)?
The value was 8.

What about the “Plant response rating, Bedstraw” value ([12]; Rate 500 g/ha, Preemergence) of the same compound?
Its value is 8.

And the “Plant response rating, Crabgrass” value [13, 18]?
Its value is 6.

What about the “Crabgrass plant response rating” value ([13]; Rate 62 g/ha, Postemergence) of the same compound?
Its value is 2.

And the “Crabgrass plant response rating” value ([13]; Rate 125 g/ha, Postemergence)?
The value was 7.

And the “Plant response rating, Crabgrass” value ([13]; Rate 125 g/ha, Preemergence)?
The value was 9.

What about the “Plant response rating, Crabgrass” value ([13]; Rate 250 g/ha, Postemergence) of the same compound?
The value was 8.

And the “Plant response rating, Crabgrass” value ([13]; Rate 250 g/ha, Preemergence)?
Its value is 9.

And the “Plant response rating, Crabgrass” value ([13]; Rate 500 g/ha, Postemergence)?
Its value is 10.

And the “Plant response rating, Crabgrass” value ([13]; Rate 500 g/ha, Preemergence)?
The value was 9.

What about the “Plant response rating, Sugarbeets” value [14, 18] of the same compound?
The value was 9.

What about the “Sugarbeets plant response rating” value ([14]; Rate 62 g/ha, Postemergence) of the same compound?
The value was 10.

And the “Sugarbeets plant response rating” value ([14]; Rate 125 g/ha, Postemergence)?
Its value is 10.

And the “Plant response rating, Sugarbeets” value ([14]; Rate 125 g/ha, Preemergence)?
The value was 10.

And the “Plant response rating, Sugarbeets” value ([14]; Rate 250 g/ha, Postemergence)?
Its value is 10.

What about the “Plant response rating, Sugarbeets” value ([14]; Rate 250 g/ha, Preemergence) of the same compound?
The value was 10.

What about the “Plant response rating, Sugarbeets” value ([14]; Rate 500 g/ha, Postemergence) of the same compound?
Its value is 10.

And the “Plant response rating, Sugarbeets” value ([14]; Rate 500 g/ha, Preemergence)?
The value was 10.

What about the “Plant response rating, Velvetleaf” value [15, 18] of the same compound?
The value was 1.

And the “Velvetleaf plant response rating” value ([15]; Rate 62 g/ha, Postemergence)?
The value was 4.

And the “Velvetleaf plant response rating” value ([15]; Rate 125 g/ha, Postemergence)?
Its value is 5.

And the “Plant response rating, Velvetleaf” value ([15]; Rate 125 g/ha, Preemergence)?
Its value is 4.

And the “Plant response rating, Velvetleaf” value ([15]; Rate 250 g/ha, Postemergence)?
The value was 6.

And the “Plant response rating, Velvetleaf” value ([15]; Rate 250 g/ha, Preemergence)?
Its value is 8.

What about the “Plant response rating, Velvetleaf” value ([15]; Rate 500 g/ha, Postemergence) of the same compound?
Its value is 8.

What about the “Plant response rating, Velvetleaf” value ([15]; Rate 500 g/ha, Preemergence) of the same compound?
Its value is 8.
